In ChEMBL document CHEMBL4020779, “Thio-functionalized carbohydrate thiosemicarbazones and evaluation of their anticancer activity” (Bioorg Med Chem Lett, 2017):
The source made the active and inactive calls. The rule behind the calls is not given here.

Legend:
[1] = system: HeLa; assay: Genotoxicity in human HeLa cells assessed as induction of DNA damage at 500 uM after 1 hr under alkaline condition by comet assay relative to control; type: functional
[2] = system: LoVo; assay: Genotoxicity in human LoVo cells assessed as induction of DNA damage at 500 uM after 1 hr under alkaline condition by comet assay relative to control; type: functional
[3] = system: A2780; assay: Cytotoxicity against human A2780 cells after 72 hrs by CCK8 assay; type: functional, cell-based; conditions: A2780, 72 h
[4] = system: A2780; assay: Induction of oxidative stress in human A2780 cells assessed as increase in ROS level in cytoplasm at IC20 after 1 hr by H2DCF-DA probe based fluorescence assay; type: functional, cell-based
[5] = system: LoVo; assay: Induction of DNA fragmentation in human LoVo cells assessed as viable cells at 0.115 uM after 24 hrs by BrdU/FITC staining-based TUNEL assay (reference value: 99.2%); type: functional; conditions: read-out: Activity
[6] = system: A2780; assay: Induction of DNA fragmentation in human A2780 cells assessed as apoptotic cells at 0.115 uM after 24 hrs by BrdU/FITC staining-based TUNEL assay (reference value: 3.9%); type: functional
[7] = system: A2780; assay: Genotoxicity in human A2780 cells assessed as induction of DNA damage at 500 uM after 1 hr under alkaline condition by comet assay relative to control; type: functional
[8] = system: LoVo; assay: Induction of apoptosis in human LoVo cells assessed as necrotic cells at 0.106 uM after 24 hrs by Annexin-V-FITC/propidium iodide staining-based flow cytometric analysis (reference value: 2.9%); type: functional
[9] = system: LoVo; assay: Induction of DNA fragmentation in human LoVo cells assessed as apoptotic cells at 0.115 uM after 24 hrs by BrdU/FITC staining-based TUNEL assay (reference value: 0.8%); type: functional
[10] = system: M059J; assay: Genotoxicity in human M059J cells assessed as induction of DNA damage at 500 uM after 1 hr under alkaline condition by comet assay relative to control; type: functional
[11] = system: A2780; assay: Induction of apoptosis in human A2780 cells assessed as viable cells at 460.6 uM after 24 hrs by Annexin-V-FITC/propidium iodide staining-based flow cytometric analysis (reference value: 93.9%); type: functional; conditions: A2780, 24 h, read-out: Activity
[12] = system: A2780; assay: Induction of apoptosis in human A2780 cells assessed as viable cells at 0.115 uM after 24 hrs by Annexin-V-FITC/propidium iodide staining-based flow cytometric analysis (reference value: 93.9%); type: functional; conditions: A2780, 24 h, read-out: Activity
[13] = system: A2780; assay: Induction of oxidative stress in human A2780 cells assessed as increase in ROS level in cytoplasm at IC50 after 1 hr by H2DCF-DA probe based fluorescence assay; type: functional, cell-based
[14] = system: MCF7; assay: Cytotoxicity against human MCF7 cells after 72 hrs by CCK8 assay; type: functional, cell-based; conditions: MCF7, 72 h
[15] = system: MCF7; assay: Genotoxicity in human MCF7 cells assessed as induction of DNA damage at 500 uM after 1 hr under alkaline condition by comet assay relative to control; type: functional
[16] = system: LoVo; assay: Induction of apoptosis in human LoVo cells assessed as apoptotic cells at 0.106 uM after 24 hrs by Annexin-V-FITC/propidium iodide staining-based flow cytometric analysis (reference value: 7.9%); type: functional
[17] = system: LoVo; assay: Induction of apoptosis in human LoVo cells assessed as apoptotic cells at 426 uM after 24 hrs by Annexin-V-FITC/propidium iodide staining-based flow cytometric analysis (reference value: 7.9%); type: functional
[18] = system: A2780; assay: Induction of apoptosis in human A2780 cells assessed as apoptotic cells at 460.6 uM after 24 hrs by Annexin-V-FITC/propidium iodide staining-based flow cytometric analysis (reference value: 2%); type: functional
[19] = system: A2780; assay: Induction of apoptosis in human A2780 cells assessed as necrotic cells at 0.115 uM after 24 hrs by Annexin-V-FITC/propidium iodide staining-based flow cytometric analysis (reference value: 4.1%); type: functional
[20] = system: LoVo; assay: Induction of apoptosis in human LoVo cells assessed as necrotic cells at 426 uM after 24 hrs by Annexin-V-FITC/propidium iodide staining-based flow cytometric analysis (reference value: 2.9%); type: functional
[21] = system: A2780; assay: Induction of DNA fragmentation in human A2780 cells assessed as viable cells at 0.115 uM after 24 hrs by BrdU/FITC staining-based TUNEL assay (reference value: 96.1%); type: functional; conditions: A2780, 24 h, read-out: Activity
[22] = system: LoVo; assay: Cytotoxicity against human LoVo cells after 72 hrs by CCK8 assay; type: functional, cell-based
[23] = system: A2780; assay: Induction of apoptosis in human A2780 cells assessed as necrotic cells at 460.6 uM after 24 hrs by Annexin-V-FITC/propidium iodide staining-based flow cytometric analysis (reference value: 4.1%); type: functional
[24] = system: LoVo; assay: Induction of DNA fragmentation in human LoVo cells assessed as viable cells at 460.6 uM after 24 hrs by BrdU/FITC staining-based TUNEL assay (reference value: 99.2%); type: functional; conditions: read-out: Activity
[25] = system: A2780; assay: Induction of DNA fragmentation in human A2780 cells assessed as apoptotic cells at 460.6 uM after 24 hrs by BrdU/FITC staining-based TUNEL assay (reference value: 3.9%); type: functional
[26] = system: LoVo; assay: Induction of apoptosis in human LoVo cells assessed as viable cells at 0.106 uM after 24 hrs by Annexin-V-FITC/propidium iodide staining-based flow cytometric analysis (reference value: 89.7%); type: functional; conditions: read-out: Activity
[27] = system: A2780; assay: Induction of DNA fragmentation in human A2780 cells assessed as viable cells at 460.6 uM after 24 hrs by BrdU/FITC staining-based TUNEL assay (reference value: 96.1%); type: functional; conditions: A2780, 24 h, read-out: Activity
[28] = system: LoVo; assay: Induction of DNA fragmentation in human LoVo cells assessed as apoptotic cells at 460.6 uM after 24 hrs by BrdU/FITC staining-based TUNEL assay (reference value: 0.8%); type: functional
[29] = system: A2780; assay: Induction of apoptosis in human A2780 cells assessed as apoptotic cells at 0.115 uM after 24 hrs by Annexin-V-FITC/propidium iodide staining-based flow cytometric analysis (reference value: 2%); type: functional
[30] = system: M059J; assay: Cytotoxicity against human M059J cells after 72 hrs by CCK8 assay; type: functional, cell-based
[31] = system: LoVo; assay: Induction of apoptosis in human LoVo cells assessed as viable cells at 426 uM after 24 hrs by Annexin-V-FITC/propidium iodide staining-based flow cytometric analysis (reference value: 89.7%); type: functional; conditions: read-out: Activity
[32] = system: HeLa; assay: Cytotoxicity against human HeLa cells after 72 hrs by CCK8 assay; type: functional, cell-based

CC(=O)OC[C@H]1O[C@@H](O[C@H]2[C@H](OC(C)=O)[C@@H](OC(C)=O)[C@H](S[C@@H]3CC(=O)[C@@H]4OC[C@H]3O4)O[C@@H]2COC(C)=O)[C@H](OC(C)=O)[C@@H](OC(C)=O)[C@H]1OC(C)=O was tested, and the Activity [1] was <10%, the Activity [2] was 10 - 20% and the IC20 [3] was 0.115 µM. The IC50 [3] was 461 µM, the Activity [4] was “inactive” and the viability at 0.115 µM [5] was 96.7%. The Activity [6] was 15.5%, the Activity [7] was <10% and the Activity [8] was 5.5%. For the same compound, the Activity [9] was 6.3%, the Activity [10] was <10% and the viability at 460.6 µM [11] was 71.4%. The viability at 0.115 µM [12] was 91.6%, the Activity [13] was “inactive” and the IC50 [14] was 913 µM. For the same compound, the Activity [15] was <10%, the Activity [16] was 12.5% and the Activity [17] was 16.3%. The Activity [18] was 22.9%, the Activity [19] was 1.4% and the Activity [20] was 12.6%. The viability at 0.115 µM [21] was 85.5%, the IC20 [22] was 106 µM and the IC50 [22] was 426 µM. It also gave an Activity [23] of 5.7%, a viability at 460.6 µM [24] of 90.6% and an Activity [25] of 41%. For the same compound, the viability at 0.106 µM [26] was 82%, the viability at 460.6 µM [27] was 59% and the Activity [28] was 9.4%. It also gave an Activity [29] of 7%, an IC50 [30] of 827 µM and a viability at 426 µM [31] of 71.2%. The IC50 [32] was 875 µM.
